These results are taken from the NIST ThermoML archive (doi:10.1016/j.jct.2011.06.007).

Structures are written as SMILES. Numbers after ± are expanded uncertainties.

A short description of series [1]: activity coefficient (dimensionless); of the first substance listed, at infinite dilution; xn = mol fraction of the nth substance listed. The settings on record: 101 kPa, Liquid, Chromatography, x1 = 0.
The conditions of series [2]: for mass density: 101.33 kPa, Liquid, Vibrating tube method.
Series [3] in a line: Molar enthalpy of transition or fusion. Particulars: Crystal; DSC.

Turning to `Cc1cccc(C)c1` [1,3-dimethylbenzene] + CCCC[N+]1(C)CCCC1.N#C[B-](C#N)(C#N)C#N, the activity coefficient in series [1] (318.15 K) was 1.54 ± 0.1; in series [1] (328.15 K), 1.56 ± 0.1; in series [1] (338.15 K), 1.59 ± 0.11; in series [1] (348.15 K), 1.62 ± 0.11; in series [1] (358.15 K), 1.64 ± 0.11; in series [1] (368.15 K), 1.66 ± 0.11.

Regarding `C1CCOC1` [tetrahydrofuran] + CCCC[N+]1(C)CCCC1.N#C[B-](C#N)(C#N)C#N, the activity coefficient in series [1] (318.15 K) stood at 0.61 ± 0.043; in series [1] (328.15 K), 0.611 ± 0.043; in series [1] (338.15 K) it was 0.639 ± 0.044; in series [1] (348.15 K), 0.652 ± 0.045; in series [1] (358.15 K), 0.661 ± 0.045; in series [1] (368.15 K), 0.679 ± 0.046.

On to `CCCCCC` [hexane] + CCCC[N+]1(C)CCCC1.N#C[B-](C#N)(C#N)C#N, for which the activity coefficient turned out to be 16.4 ± 1.1 in series [1] (318.15 K); 15.3 ± 1 in series [1] (328.15 K); 14.3 ± 1 in series [1] (338.15 K); 13.8 ± 0.9 in series [1] (348.15 K); 12.9 ± 0.9 in series [1] (358.15 K); 12.3 ± 0.8 in series [1] (368.15 K).

In the case of `C#CCCCC` [1-hexyne] + CCCC[N+]1(C)CCCC1.N#C[B-](C#N)(C#N)C#N, the activity coefficient in series [1] (318.15 K) stood at 2.53 ± 0.17; in series [1] (328.15 K), 2.56 ± 0.17; in series [1] (338.15 K) it was 2.58 ± 0.18; in series [1] (348.15 K) it was 2.63 ± 0.18; in series [1] (358.15 K), 2.63 ± 0.18; in series [1] (368.15 K), 2.68 ± 0.18.

Turning to `C1CCCCCCC1` [cyclooctane] + CCCC[N+]1(C)CCCC1.N#C[B-](C#N)(C#N)C#N, the activity coefficient in series [1] (318.15 K) is 13.5 ± 0.9; in series [1] (328.15 K), 12.5 ± 0.9; in series [1] (338.15 K), 11.6 ± 0.8; in series [1] (348.15 K), 11.2 ± 0.8; in series [1] (358.15 K) it was 10.3 ± 0.7; in series [1] (368.15 K) it was 9.76 ± 0.67.

Turning to `C=CCCCC` [hex-1-ene] + CCCC[N+]1(C)CCCC1.N#C[B-](C#N)(C#N)C#N, the activity coefficient was determined as 7.68 ± 0.52 in series [1] (318.15 K); 7.31 ± 0.5 in series [1] (328.15 K); 7.16 ± 0.49 in series [1] (338.15 K); 7.03 ± 0.48 in series [1] (348.15 K); 6.57 ± 0.45 in series [1] (358.15 K); 6.57 ± 0.45 in series [1] (368.15 K).

With `CC(C)CC(C)(C)C` [2,2,4-trimethylpentane] + CCCC[N+]1(C)CCCC1.N#C[B-](C#N)(C#N)C#N, the activity coefficient in series [1] (318.15 K) stood at 27.5 ± 1.9; in series [1] (328.15 K) it was 25.4 ± 1.7; in series [1] (338.15 K), 23.5 ± 1.6; in series [1] (348.15 K) it was 22.5 ± 1.5; in series [1] (358.15 K), 20.9 ± 1.4; in series [1] (368.15 K) it was 20 ± 1.4.

`CCCC[N+]1(C)CCCC1.N#C[B-](C#N)(C#N)C#N` [1-butyl-1-methylpyrrolidinium tetracyanoborate]: the mass density in series [2] (318.15 K) is given as 962.29 ± 1 kg/m3; in series [2] (328.15 K) it was 955.61 ± 1 kg/m3; in series [2] (338.15 K), 949 ± 1 kg/m3; in series [2] (348.15 K) it was 942.32 ± 1 kg/m3; in series [2] (358.15 K), 935.59 ± 1 kg/m3; in series [2] (368.15 K), 928.86 ± 1 kg/m3. In addition, the Normal melting temperature in series [2] (Crystal, DTA) came out at 17.30 ± 0.39 °C. Moreover, in series [3], the “Molar enthalpy of transition or fusion” value came out at 8.51 ± 0.184 kcal/mol.

As to `CCCC(C)=O` [pentan-2-one] + CCCC[N+]1(C)CCCC1.N#C[B-](C#N)(C#N)C#N, the activity coefficient in series [1] (318.15 K) came to 0.692 ± 0.047; in series [1] (328.15 K) it was 0.701 ± 0.047; in series [1] (338.15 K) it was 0.721 ± 0.048; in series [1] (348.15 K), 0.735 ± 0.049; in series [1] (358.15 K) it was 0.738 ± 0.049; in series [1] (368.15 K), 0.755 ± 0.05.

In the case of `CCC(C)(C)OC` [2-methoxy-2-methylbutane] + CCCC[N+]1(C)CCCC1.N#C[B-](C#N)(C#N)C#N, the activity coefficient in series [1] (318.15 K) is 3.32 ± 0.23; in series [1] (328.15 K) it was 3.34 ± 0.23; in series [1] (338.15 K), 3.35 ± 0.23; in series [1] (348.15 K), 3.36 ± 0.23; in series [1] (358.15 K), 3.37 ± 0.23; in series [1] (368.15 K) it was 3.39 ± 0.23.

Turning to `Cc1ccc(C)cc1` [1,4-dimethylbenzene] + CCCC[N+]1(C)CCCC1.N#C[B-](C#N)(C#N)C#N, the activity coefficient in series [1] (318.15 K) is 1.46 ± 0.1; in series [1] (328.15 K), 1.49 ± 0.1; in series [1] (338.15 K) it was 1.54 ± 0.1; in series [1] (348.15 K), 1.58 ± 0.1; in series [1] (358.15 K), 1.59 ± 0.11; in series [1] (368.15 K) it was 1.62 ± 0.11.

Regarding `CC(C)OC(C)C` [diisopropyl ether] + CCCC[N+]1(C)CCCC1.N#C[B-](C#N)(C#N)C#N, the activity coefficient turned out to be 6.08 ± 0.41 in series [1] (318.15 K); 5.94 ± 0.4 in series [1] (328.15 K); 5.91 ± 0.4 in series [1] (338.15 K); 5.82 ± 0.4 in series [1] (348.15 K); 5.75 ± 0.39 in series [1] (358.15 K); 5.68 ± 0.39 in series [1] (368.15 K).

Consider `CCOCC` [diethyl ether] + CCCC[N+]1(C)CCCC1.N#C[B-](C#N)(C#N)C#N, for which the activity coefficient in series [1] (318.15 K) amounted to 2.32 ± 0.16; in series [1] (328.15 K) it was 2.33 ± 0.16; in series [1] (338.15 K), 2.34 ± 0.16; in series [1] (348.15 K) it was 2.36 ± 0.16; in series [1] (358.15 K), 2.37 ± 0.16; in series [1] (368.15 K), 2.39 ± 0.16.

On to `CCC(C)CC` [3-methylpentane] + CCCC[N+]1(C)CCCC1.N#C[B-](C#N)(C#N)C#N, for which the activity coefficient was determined as 14.9 ± 1 in series [1] (318.15 K); 13.8 ± 0.9 in series [1] (328.15 K); 13 ± 0.9 in series [1] (338.15 K); 12.6 ± 0.9 in series [1] (348.15 K); 11.8 ± 0.8 in series [1] (358.15 K); 11.2 ± 0.8 in series [1] (368.15 K).

Take `CCCCCCCC` [octane] + CCCC[N+]1(C)CCCC1.N#C[B-](C#N)(C#N)C#N: the activity coefficient was found to be 32.6 ± 2.2 in series [1] (318.15 K); 30.2 ± 2.1 in series [1] (328.15 K); 27.5 ± 1.9 in series [1] (338.15 K); 26.2 ± 1.8 in series [1] (348.15 K); 23.8 ± 1.6 in series [1] (358.15 K); 22.5 ± 1.5 in series [1] (368.15 K).

Regarding `CCCCO` [butan-1-ol] + CCCC[N+]1(C)CCCC1.N#C[B-](C#N)(C#N)C#N, the activity coefficient in series [1] (318.15 K) worked out at 1.88 ± 0.13; in series [1] (328.15 K), 1.67 ± 0.11; in series [1] (338.15 K), 1.55 ± 0.1; in series [1] (348.15 K) it was 1.44 ± 0.09; in series [1] (358.15 K), 1.33 ± 0.09; in series [1] (368.15 K), 1.23 ± 0.08.

For `C#CCCCCCC` [1-octyne] + CCCC[N+]1(C)CCCC1.N#C[B-](C#N)(C#N)C#N, the activity coefficient is 4.93 ± 0.34 in series [1] (318.15 K); 4.9 ± 0.33 in series [1] (328.15 K); 4.88 ± 0.33 in series [1] (338.15 K); 4.85 ± 0.33 in series [1] (348.15 K); 4.81 ± 0.33 in series [1] (358.15 K); 4.78 ± 0.33 in series [1] (368.15 K).

For the compound `c1ccccc1` [benzene] + CCCC[N+]1(C)CCCC1.N#C[B-](C#N)(C#N)C#N, the activity coefficient in series [1] (318.15 K) is 0.81 ± 0.052; in series [1] (328.15 K), 0.816 ± 0.053; in series [1] (338.15 K), 0.836 ± 0.054; in series [1] (348.15 K), 0.855 ± 0.055; in series [1] (358.15 K) it was 0.87 ± 0.056; in series [1] (368.15 K), 0.887 ± 0.056.

Usually mass density stands for the mass of a sample divided by its volume.
